# Results: the supplement of paper PMC3974653
# Where a name gives a salt, the structure may show the parent alone.
# Tested on: MTT (mouse pheochromocytoma)
# Assay: IC50 of cell viability (ATP content)
# Settings: (24 or 48 h)
# Method in brief: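 After overnight culture at 37°C, 5% CO2 in white 1536-well plates, MTT mouse pheochromocytoma cells were given 23 nl of library compound in DMSO by pintool across 8 concentrations, spanning final 0.5 nM to 46 µM. Following 24 or 48 hrs, CellTiter-Glo luminescence was read after 15 minutes and normalised against positive-control (100%) and DMSO (0%) wells. A four-parameter logistic model provided the IC50.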
row,Compound,IC50 of cell viability
1,CC(C)c1ccc2oc3nc(N)c(C(=O)O)cc3c(=O)c2c1 [AMLEXANOX],> 46 µM
2,CCCCCc1cc(O)c2c(c1)OC(C)(C)c1ccc(C)cc1-2 [Cannabinol],> 46 µM
3,C#CCN(C)[C@@H](C)Cc1ccccc1 [Selegiline hydrochloride],> 46 µM
4,CN(C1CCCCC1)C(=O)CCCOC2=CC\3=C(NC(=O)\C=C3)C=C2 [Cilostamide],> 46 µM
5,CCC(=O)O[C@@](Cc1ccccc1)(c1ccccc1)[C@@H](C)CN(C)C.O=[S+]([O-])(O)c1ccc2ccccc2c1 [Levopropoxyphene napsylate],> 46 µM
6,CC(=O)O[C@@H](C)C(=O)OCC[N+](C)(C)C.CC(=O)O[C@@H](C)C(=O)OCC[N+](C)(C)C.O=S(=O)([O-])c1cccc2c(S(=O)(=O)[O-])cccc12 [Aclatonium Napadisilate],> 46 µM
7,CCC(COC(=O)c1cc(OC)c(OC)c(OC)c1)(c1ccccc1)N(C)C.O=C(O)/C=C\C(=O)O (stereo not drawn) [TRIMEBUTINE MALEATE],> 46 µM
8,CCN[C@@H](C)Cc1ccccc1 [(+)-N-Ethylamphetamine],> 46 µM
9,C=C(NCc1ccccc1)c1ccccc1O,> 46 µM
10,N[C@@H](CO)C(=O)NNCc1ccc(O)c(O)c1O [Benserazide hydrochloride],> 46 µM
11,O=C1Oc2ccccc2C(=O)C1C(CC(O)c1ccc(-c2ccc(Br)cc2)cc1)c1ccccc1 (stereo not drawn) [BOLDO],> 46 µM
12,"CCCCCCCCCCCCCCCC(=O)OC[C@@H](COP(=O)([O-])OCC[N+](C)(C)C)OC(=O)CCCCCCCCCCCCCCC [2,3-Dipalmitoyl-sn-glycero-1-phosphocholine]",> 46 µM
13,CCCC1CCCCN1 (stereo not drawn) [CONIINE],> 46 µM
14,CCc1cc2c(s1)-n1c(C)nnc1CN=C2c1ccccc1Cl [ETIZOLAM],> 46 µM
15,CN(C)CCCN1c2ccccc2CCc2ccc(Cl)cc21 [CLOMIPRAMINE],> 46 µM
16,CC(=O)c1ccc([S+](=O)([O-])NC(=O)NC2CCCCC2)cc1 [Acetohexamide],> 46 µM

row,Compound,IC50 of cell viability
1,CNC1C(OC2C(O[C@@H]3C(O)C(O)[C@@H](NC(=N)N)C(O)C3NC(=N)N)OC(C)[C@@]2(O)CO)OC(CO)C(O)C1O.O=[S+]([O-])(O)O (stereo partly drawn) [DIHYDROSTREPTOMYCIN SULFATE],> 46 µM
2,COP(=S)(OC)SCN1C(=O)c2ccccc2C1=O [Phosmet],> 46 µM
3,C[C@]12CCC3C(CC(=C)C\4=C\C(=O)\C=C/[C@@]34C)C1CCC2=O (stereo partly drawn) [EXEMESTANE],> 46 µM
4,CCCCOC(=O)c1ccc(N)cc1 [BUTAMBEN],> 46 µM
5,O=C(NC(CO)C(O)c1ccc([N+](=O)[O-])cc1)C(Cl)Cl (stereo not drawn) [CHLORAMPHENICOL],> 46 µM
6,CC(C)(C)c1ccc(CN2CCN([C@H](c3ccccc3)c3ccc(Cl)cc3)CC2)cc1 [Buclodin],> 46 µM
7,NC1(c2ccccc2)CCCCC1 [1-Phenylcyclohexyl],> 46 µM
8,C[C@H](C1=NC=CC=C1)C/2=C(CCN(C)C)/CC3=CC=CC=C23 [(S)-(+)-Dimethindene maleate],> 46 µM
9,CCN(CC)C(C)C(=O)c1ccccc1 (stereo not drawn) [DIETHYLPROPION HYDROCHLORIDE],> 46 µM
10,COC/1=C(/N2[C@H](SC1)[C@H](NC(=O)C(N)C/3\C=C/C/C=C3)C2=O)C(O)=O (stereo partly drawn) [Cefradoxil],> 46 µM
11,O=[S+]([O-])(O)c1cc(I)c(O)c2ncccc12 [CHINIOFONUM],> 46 µM
12,NCC1(CC(=O)O)CCCCC1 [Gabapentin],> 46 µM
13,CCC[C@@H]1CC(C(=O)NC(C2O[C@H](SC)C(OP(=O)(O)O)[C@H](O)[C@H]2O)[C@H](C)Cl)N(C)C1 (stereo partly drawn) [Clindamycin 2-phosphate],> 46 µM
14,"O=C(O)C(O)[C@@H](O)[C@H](O)C(=O)CO (stereo in doubt) [D-XYLO-5-HEXULOSONIC ACID, CALCIUM SALT]",> 46 µM
15,CC1(C)CO[C@@H](CC(=O)O)CN1,> 46 µM
16,CC1=CC=CC=C1N2\C(=N/C3=CC=CC=C3C2=O)C [Methaqualone],> 46 µM

# More lines, now with the values ahead:
row,IC50 of cell viability,Compound
1,> 46 µM,Cc1ccc(C(=O)c2ccc(CC(=O)[O-])n2C)cc1.O.O.[Na+] [Tolmetin sodium salt dihydrate]
2,> 46 µM,COC(=O)\C1=C(/C)N\C(=C(/[C@H]1C2=CC=CC3=NON=C23)C(=O)OC(C)C)C [Isradipine]
3,> 46 µM,NC1=NCC2c3ccccc3Cc3ccccc3N12 (stereo not drawn) [EPINASTINE HYDROCHLORIDE]
4,> 46 µM,CC(C)NCC(O)c1ccc(N[S+](C)(=O)[O-])cc1.Cl (stereo not drawn) [DEXSOTALOLUM]
5,> 46 µM,c1ccc2ccccc2c1 [Naphthalene]
6,> 46 µM,COC1=C2OC(=O)\C=C/C2=CC3=C1OC=C3 [Methoxsalen]
7,> 46 µM,Nc1cc(N2CCCCC2)nc(N)[n+]1[O-] [MINOXIDIL]
8,> 46 µM,CN(C)CCCN1c2ccccc2Sc2ccccc21 [Promazine hydrochloride]
9,> 46 µM,CC(C)(C)NC[C@H](O)c1cc(O)cc(O)c1 [Terbutaline hemisulfate]
10,> 46 µM,O=NN(CCCl)C(=O)NC1CCCCC1 [LOMUSTINE]
11,> 46 µM,C[NH+](C)CCC(c1ccccc1)c1cccc[nH+]1.O=C([O-])CC(=O)[O-] (stereo not drawn) [Pheniramine maleate]
12,> 46 µM,CCC1OC(=O)CC(O)C(C)[C@@H](O[C@@H]2OC(C)[C@H](O[C@@H]3C[C@@](C)(O)C(O)C(C)O3)C(N(C)C)C2O)[C@H](CC=O)CC(C)C(=O)/C=C/C(C)=C/[C@@H]1COC1OC(C)C(O)C(OC)[C@@H]1OC (stereo partly drawn) [TYLOSIN TARTRATE]
13,> 46 µM,C=CC[N+]1([C@H]2C[C@H]3[C@@H]4CC[C@H]5C[C@H](OC(C)=O)[C@@H](N6CCCCC6)C[C@]5(C)[C@H]4CC[C@]3(C)[C@H]2OC(=O)CC)CCCCC1 [RAPACURONIUM BROMIDE]
14,> 46 µM,Cc1ccnc2c1NC(=O)c1cccnc1N2C1CC1 [Nevirapine]
15,> 46 µM,CC1CCC(C(C)C)C(O)C1 (stereo not drawn) [MENTHOL]
16,> 46 µM,CCC(C)[C@@H](N)C(=O)O (stereo partly drawn) [ISOLEUCINE]
17,> 46 µM,C[C@]12CC[C@H]3c4ccc(O)cc4CC[C@@H]3[C@H]1CC[C@@H]2OP(=O)(O)O [Estradiol phosphate]
18,> 46 µM,Cc1ccc(-c2ncc(Cl)cc2-c2ccc(S(C)(=O)=O)cc2)cn1 [ETORICOXIB]
19,> 46 µM,NC(C(=O)O)C(O)c1ccc(O)c(O)c1 (stereo not drawn) [Droxidopa]
20,> 46 µM,NC(=O)Oc1ccc(Cc2ccccc2)cc1 [Difenano]
21,> 46 µM,CC(=O)N[C@@H]1C(O[C@H]2O[C@H](C(=O)O)C(O)[C@H](O)[C@H]2O)[C@H](O)[C@@H](CO)O[C@H]1O[C@@H]1C(C(=O)O)O[C@@H](O[C@H]2[C@H](O)[C@@H](CO)OC(O)[C@@H]2NC(C)=O)[C@H](O)[C@H]1O (stereo partly drawn) [HYALURONATE SODIUM]

row,IC50 of cell viability,Compound
1,> 46 µM,C[C@]12CC[C@@H]3[C@H](CC\C4=C\CCC[C@H]34)[C@@H]1CC[C@]2(O)C#C [Lynestrenol]
2,> 46 µM,CCCCCCCCCCCCCCCCSCC(COC)COP(=O)([O-])OCC[N+](C)(C)C (stereo not drawn) [Ilmofosine]
3,> 46 µM,Nc1ccc([S+](=O)([O-])Nc2cnc3ccccc3n2)cc1 [sulfaquinoxaline]
4,> 46 µM,CC1=CC(=CC(=C1C\C2=N\CCN2)C)C(C)(C)C [Xylometazoline hydrochloride]
5,> 46 µM,CCc1oc2ccccc2c1C(=O)c1cc(Br)c(O)c(Br)c1 [benzbromarone]
6,> 46 µM,C[N+]1(C)CCN(C[C@@](O)(c2ccccc2)C2CCCCC2)CC1 [Hexocyclium methosulfate]
7,> 46 µM,CC(=O)Oc1c(C)cc(OCC(O)CNC(C)C)c(C)c1C (stereo not drawn) [Metipranolol]
8,> 46 µM,CC(C)(C)CC(C)(C)c1ccc(OCCO)cc1 [Triton X-100]
9,> 46 µM,CC[C@H]1OC(=O)C[C@@H](O)[C@H](C)[C@@H](O[C@@H]2O[C@H](C)C[C@H](N(C)C)[C@@H]2O)[C@@H](CC=O)C[C@@H](C)C(=O)/C=C\[C@]2(C)O[C@H]2[C@@H]1C [Rosaramicin]
10,> 46 µM,CN1CCCN=C1/C=C\c1cccs1.O=C(O)[C@@H](O)[C@@H](O)C(=O)O [Pyrantel tartrate]
11,> 46 µM,COc1ccc2c(c1)C(=O)N(CCc1ccc([S+](=O)([O-])NC(=O)NC3CCCCC3)cc1)C(=O)C2(C)C [Gliquidone]
12,> 46 µM,FC(F)(F)C(F)(F)C(F)(F)C(F)(F)C(F)(F)C(F)(F)F [PERFLEXANE]
13,> 46 µM,Cl.CC(C)NC/1=C(C)/N(C)N(C1=O)C2=CC=CC=C2 [RAMIFENAZONE]
14,> 46 µM,O=c1[nH]c(=O)n(C2C[C@H](O)[C@@H](CO)O2)cc1C(F)(F)F (stereo partly drawn) [Trifluridine]
15,> 46 µM,CC(=O)Oc1cc(C(F)(F)F)ccc1C(=O)O [Triflusal]
16,> 46 µM,OCC(O)CS (stereo not drawn) [THIOGLYCEROL]
17,> 46 µM,C=C1/C(=C\C=C2/CCC[C@@]3(C)[C@@H]([C@H](C)OCCC(C)(C)O)CC[C@@H]23)C[C@@H](O)C[C@@H]1O [Maxacalcitol]
18,> 46 µM,Cc1cccc(C)c1NC(=O)CN(CC(=O)O)CC(=O)O [Lidofenin]
19,> 46 µM,C[S+](=O)([O-])c1ccc([C@H](O)[C@H](CF)NC(=O)C(Cl)Cl)cc1 [Florfenicol]
20,> 46 µM,Cl.O=C(COc1ccc(Cl)cc1)N1CCN(Cc2ccc3c(c2)OCO3)CC1 [FIPEXIDE HYDROCHLORIDE]
